Data: patent US11866430B2, “Naphthyridinone compounds useful as T cell activators” (priority 2018, dated 2024)

How the values were obtained:
human DGKζ = human DGKζ (Homo sapiens (Human), UniProt Q13574); test: DGKζ assay (detergent/lipid micelle substrate); type: biochemical; conditions: detergent/lipid micelle substrate; read-out: DGKζ IC50
How it was run: (§1)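 Full-length human DGKα or DGKζ (C-terminal His tag, Sf9-expressed; 20 nM 4× stock) was preincubated 10 min at room temperature with PS/DAG octyl glucoside micelles in MOPS pH 7.5 buffer with MgCl2, CaCl2 and DTT. It was then started with ATP (300 uM addition) and run for 1 hr, with ADP-Glo luminescence read-out.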

[1] = test system: pre-activated CD4 T cells and Raji cells; test: Raji CD4 T Cell IL2 Assay; type: cell-based; conditions: Homo sapiens, Raji
human DGKα = human DGKα (Homo sapiens (Human), UniProt P23743); test: biochemical; conditions: detergent/lipid micelle substrate; read-out: DGKα IC50
How it was run: as §1

human DGKα, sequence (P23743 other isoform, or with tags, fused parts or gaps): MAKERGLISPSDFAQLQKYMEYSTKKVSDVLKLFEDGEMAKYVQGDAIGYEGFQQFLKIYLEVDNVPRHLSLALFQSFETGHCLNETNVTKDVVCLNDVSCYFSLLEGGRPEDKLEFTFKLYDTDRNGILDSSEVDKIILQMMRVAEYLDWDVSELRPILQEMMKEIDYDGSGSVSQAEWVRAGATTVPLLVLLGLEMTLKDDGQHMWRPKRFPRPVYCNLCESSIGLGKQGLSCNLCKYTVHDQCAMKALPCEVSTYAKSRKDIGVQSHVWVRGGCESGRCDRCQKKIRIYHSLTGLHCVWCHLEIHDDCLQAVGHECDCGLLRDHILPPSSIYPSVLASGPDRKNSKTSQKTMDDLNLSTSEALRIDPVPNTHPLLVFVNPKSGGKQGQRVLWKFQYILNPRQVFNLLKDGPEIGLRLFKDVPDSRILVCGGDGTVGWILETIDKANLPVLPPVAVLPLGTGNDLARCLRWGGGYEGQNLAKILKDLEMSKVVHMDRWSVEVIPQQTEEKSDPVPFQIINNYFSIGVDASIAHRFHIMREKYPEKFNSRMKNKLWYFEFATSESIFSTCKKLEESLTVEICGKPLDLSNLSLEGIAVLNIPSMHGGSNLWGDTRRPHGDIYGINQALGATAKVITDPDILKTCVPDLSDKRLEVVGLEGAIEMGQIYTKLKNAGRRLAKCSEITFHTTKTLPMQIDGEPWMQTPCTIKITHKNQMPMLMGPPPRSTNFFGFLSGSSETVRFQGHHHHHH
human DGKζ, sequence (Q13574 other isoform, or with tags, fused parts or gaps): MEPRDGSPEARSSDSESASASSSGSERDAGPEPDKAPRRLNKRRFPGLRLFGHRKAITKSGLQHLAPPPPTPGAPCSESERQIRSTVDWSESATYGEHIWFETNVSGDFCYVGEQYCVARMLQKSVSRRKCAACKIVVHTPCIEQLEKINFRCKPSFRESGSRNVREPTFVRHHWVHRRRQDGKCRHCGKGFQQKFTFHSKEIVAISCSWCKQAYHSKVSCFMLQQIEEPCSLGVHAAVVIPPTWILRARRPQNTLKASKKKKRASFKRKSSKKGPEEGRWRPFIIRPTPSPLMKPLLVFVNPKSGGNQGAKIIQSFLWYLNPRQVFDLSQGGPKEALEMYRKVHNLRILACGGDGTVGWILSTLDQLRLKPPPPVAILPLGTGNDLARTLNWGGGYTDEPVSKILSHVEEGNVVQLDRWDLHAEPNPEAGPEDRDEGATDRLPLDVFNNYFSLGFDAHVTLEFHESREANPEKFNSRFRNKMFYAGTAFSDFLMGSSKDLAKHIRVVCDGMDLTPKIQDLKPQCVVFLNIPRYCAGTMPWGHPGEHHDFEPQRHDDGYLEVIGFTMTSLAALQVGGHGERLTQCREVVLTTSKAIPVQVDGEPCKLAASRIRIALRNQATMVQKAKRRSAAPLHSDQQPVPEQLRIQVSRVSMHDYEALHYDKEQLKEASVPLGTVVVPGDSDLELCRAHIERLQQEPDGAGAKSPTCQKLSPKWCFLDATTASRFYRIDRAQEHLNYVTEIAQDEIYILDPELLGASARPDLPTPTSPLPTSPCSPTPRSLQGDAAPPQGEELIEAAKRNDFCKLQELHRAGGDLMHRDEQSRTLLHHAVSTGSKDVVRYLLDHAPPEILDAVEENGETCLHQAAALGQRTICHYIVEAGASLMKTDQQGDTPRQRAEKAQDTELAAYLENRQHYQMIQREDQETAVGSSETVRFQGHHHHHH

| Compound | IC50 (human DGKζ) | IC50 [1] | IC50 (human DGKα) |
| --- | --- | --- | --- |
| Cn1c(=O)c(C#N)c(N2CCN(Cc3c(O)cccc3Br)CC2)c2nc(Br)ccc21 [Example 271, 6-bromo-4-{4-[(2-bromo-6-hydroxyphenyl)methyl]piperazin-1-yl}-1-methyl-2-oxo-1,2-dihydro-1,5-naphthyridine-3-carbonitrile] | 110000 nM | 61 nM | 1100 nM |
| Cn1c(=O)c(C#N)c(N2CCN(Cc3ccc(Br)cc3O)CC2)c2nc(Cl)ccc21 [Example 276, 4-{4-[(4-bromo-2-hydroxyphenyl)methyl]piperazin-1-yl}-6-chloro-1-methyl-2-oxo-1,2-dihydro-1,5-naphthyridine-3-carbonitrile] | > 240000 nM | 79 nM | 12 nM |
| Cn1c(=O)c(C#N)c(N2CCN(Cc3cccc(Cl)c3O)CC2)c2nc(Br)ccc21 [Example 278, 6-bromo-4-{4-[(3-chloro-2-hydroxyphenyl)methyl]piperazin-1-yl}-1-methyl-2-oxo-1,2-dihydro-1,5-naphthyridine-3-carbonitrile] | > 81000 nM | 87 nM | 350 nM |
| Cn1c(=O)c(C#N)c(N2CCN(Cc3c(O)cccc3F)CC2)c2nc(Cl)ccc21 [Example 280, 6-chloro-4-{4-[(2-fluoro-6-hydroxyphenyl)methyl]piperazin-1-yl}-1-methyl-2-oxo-1,2-dihydro-1,5-naphthyridine-3-carbonitrile] | > 240000 nM | 92 nM | 76 nM |
| Cn1c(=O)c(C#N)c(N2CCN(Cc3cc(Br)ccc3O)CC2)c2nc(Br)ccc21 [Example 282, 6-bromo-4-{4-[(5-bromo-2-hydroxyphenyl)methyl]piperazin-1-yl}-1-methyl-2-oxo-1,2-dihydro-1,5-naphthyridine-3-carbonitrile] | > 240000 nM | 94 nM | 220 nM |
| Cn1c(=O)c(C#N)c(N2CCN(Cc3ccccc3NC(=O)OC(C)(C)C)CC2)c2nc(Br)ccc21 [Example 284, tert-butyl N-(2-{[4-(6-bromo-3-cyano-1-methyl-2-oxo-1,2-dihydro-1,5-naphthyridin-4-yl)piperazin-1-yl]methyl}phenyl)carbamate] | > 240000 nM | 98 nM | 1000 nM |
| Cn1c(=O)c(C#N)c(N2CCN(Cc3ccccc3OC(F)(F)F)CC2)c2nc(Cl)ccc21 [Example 285, 6-chloro-1-methyl-2-oxo-4-(4-{[2-(trifluoromethoxy)phenyl]methyl}piperazin-1-yl)-1,2-dihydro-1,5-naphthyridine-3-carbonitrile] | > 240000 nM | 100 nM | 910 nM |
| Cc1ccc2c(n1)c(N1CCN(Cc3cccc(Br)c3O)CC1)c(C#N)c(=O)n2C [Example 286, 4-{4-[(3-bromo-2-hydroxyphenyl)methyl]piperazin-1-yl}-1,6-dimethyl-2-oxo-1,2-dihydro-1,5-naphthyridine-3-carbonitrile] | 140000 nM | 100 nM | 1200 nM |
| Cc1ccc(CN2CCN(c3c(C#N)c(=O)n(C)c4ccc(Cl)nc34)CC2)cc1F [Example 289, 6-chloro-4-{4-[(3-fluoro-4-methylphenyl)methyl]piperazin-1-yl}-1-methyl-2-oxo-1,2-dihydro-1,5-naphthyridine-3-carbonitrile] | > 81000 nM | 110 nM | 250 nM |
| Cc1cc(F)cc(CN2CCN(c3c(C#N)c(=O)n(C)c4ccc(Cl)nc34)CC2)c1 [Example 290, 6-chloro-4-{4-[(3-fluoro-5-methylphenyl)methyl]piperazin-1-yl}-1-methyl-2-oxo-1,2-dihydro-1,5-naphthyridine-3-carbonitrile] | > 240000 nM | 110 nM | 2200 nM |
| Cn1c(=O)c(C#N)c(N2CCN(Cc3cc(F)cc(F)c3)CC2)c2nc(Cl)ccc21 [Example 291, 6-chloro-4-{4-[(3,5-difluorophenyl)methyl]piperazin-1-yl}-1-methyl-2-oxo-1,2-dihydro-1,5-naphthyridine-3-carbonitrile] | > 81000 nM | 110 nM | 330 nM |
| Cn1c(=O)c(C#N)c(N2CCN(Cc3c(O)cccc3F)CC2)c2nc(Br)ccc21 [Example 294, 6-bromo-4-{4-[(2-fluoro-6-hydroxyphenyl)methyl]piperazin-1-yl}-1-methyl-2-oxo-1,2-dihydro-1,5-naphthyridine-3-carbonitrile] | > 240000 nM | 140 nM | 110 nM |
| Cc1ccc2c(n1)c(N1CCN(Cc3cc(Cl)ccc3O)CC1)c(C#N)c(=O)n2C [Example 296, 4-{4-[(5-chloro-2-hydroxyphenyl)methyl]piperazin-1-yl}-1,6-dimethyl-2-oxo-1,2-dihydro-1,5-naphthyridine-3-carbonitrile] | 150000 nM | 150 nM | 980 nM |
| COc1ccccc1CN1CCN(c2c(C#N)c(=O)n(C)c3ccc(Br)nc23)CC1 [Example 297, 6-bromo-4-{4-[4(2-methoxyphenyl)methyl]piperazin-1-yl}-1-methyl-2-oxo-1,2-dihydro-1,5-naphthyridine-3-carbonitrile] | > 240000 nM | 160 nM | 890 nM |
| Cn1c(=O)c(C#N)c(N2CCN(Cc3cc(F)cc(F)c3O)CC2)c2nc(Cl)ccc21 [Example 298, 6-chloro-4-{4-[(3,5-difluoro-2-hydroxyphenyl)methyl]piperazin-1-yl}-1-methyl-2-oxo-1,2-dihydro-1,5-naphthyridine-3-carbonitrile] | 27000 nM | 160 nM | 830 nM |
| Cn1c(=O)c(C#N)c(N2CCN(Cc3cccc4c3NCC4)CC2)c2nc(Br)ccc21 [Example 299, 6-bromo-4-{4-[(2,3-dihydro-1H-indol-7-yl)methyl]piperazin-1-yl}-1-methyl-2-oxo-1,2-dihydro-1,5-naphthyridine-3-carbonitrile] | > 240000 nM | 160 nM | 570 nM |
| Cn1c(=O)c(C#N)c(N2CCN(Cc3cccc(Cl)c3)CC2)c2nc(Cl)ccc21 [Example 302, 6-chloro-4-{4-[(3-chlorophenyl)methyl]piperazin-1-yl}-1-methyl-2-oxo-1,2-dihydro-1,5-naphthyridine-3-carbonitrile] | > 81000 nM | 180 nM | 610 nM |
| Cn1c(=O)c(C#N)c(N2CCN(Cc3cccc4cc[nH]c34)CC2)c2nc(Cl)ccc21 [Example 303, 6-chloro-4-{4-[_(1H-indol-7-yl)methyl]piperazin-1-yl}-1-methyl-2-oxo-1,2-dihydro-1,5-naphthyridine-3-carbonitrile] | > 240000 nM | 180 nM | 900 nM |
| Cn1c(=O)c(C#N)c(N2CCN(Cc3cccc(F)c3O)CC2)c2nc(Cl)ccc21 [Example 306, 6-chloro-4-{4-[(3-fluoro-2-hydroxyphenyl)methyl]piperazin-1-yl}-1-methyl-2-oxo-1,2-dihydro-1,5-naphthyridine-3-carbonitrile] | > 240000 nM | 210 nM | 200 nM |
| Cn1c(=O)c(C#N)c(N2CCN(Cc3cc(Cl)cc(Cl)c3O)CC2)c2nc(Cl)ccc21 [Example 307, 6-chloro-4-{4-[(3,5-dichloro-2-hydroxyphenyl)methyl]piperazin-1-yl}-1-methyl-2-oxo-1,2-dihydro-1,5-naphthyridine-3-carbonitrile] | > 81000 nM | 210 nM | 1800 nM |
